# Measurements as given in patent US11491117B2, “Compounds for the prevention and treatment of glucose intolerance related conditions and obesity” (SORBONNE UNIVERSITÉ, priority 2017, dated 2022).
# System: C57BL/6J mice fed control chow diet (CHD) or high fat diet (HFD)
# Assay: Chronic subcutaneous infusion in mice fed control chow or high fat diet: body growth, glucose homeostasis (IPGTT), insulin secretion, organ weight, liver triglycerides
# Type: in vivo, mouse
# Method: Six weeks-old C57BL/6J male mice (Janvier Labs, Courtaboeuf, France) were received and acclimated in specific pathogen free (SPF) maintenance condition. Mice had free access to a standard chow diet (R04-40, Safe, Augy, France) and were kept on 12 h light/dark cycle. After one week, a group of 12 mice was fed control carbohydrate diet (CHD) (D 12450Ki, Research diets, NJ) and a group of 12 mice was fed high fat (60% fat and sucrose) diet (HFD) (D12492i, Research diets, NJ).
# After three weeks of metabolite treatment (i.e. four weeks of HFD feeding) an intra-peritoneal glucose tolerance test (IPGTT) (2 g/kg) was performed in conscious mice following an overnight fast. Blood was collected from the tail vein before glucose injection and 15, 30, 60 and 120 minutes afterwards. Additional blood samples were collected during the IPGTT in GK rats 15, 90, 180 and 240 minutes after glucose injection. Blood glucose levels were determined using an Accu-Check® Performa (Roche Diagnostics, Meylan, France). Additional blood samples were collected at base line and 30 minutes after glucose injection in Microvette® CB 300 Lithium Heparin (Sarstedt, Marnay, France). Plasma was separated by centrifugation and stored at −80° C. until insulin radioimmunoassay. Evaluation of overall glucose tolerance was obtained from cumulative glycemia (GCum) and the ΔG, which were determined by the total increment of plasma glucose values during the IPGTT (GCum) and the cumulative glycemia during the test above baseline (ΔG). After six weeks of metabolite treatment, mice were killed by decapitation and organ were dissected and weighed. Half of liver, fat and pancreas samples were snap frozen in liquid nitrogen and stored at −80° C. for molecular studies, and the second half processed for histopathology. All procedures were authorized following review by the institutional ethic committee and carried out under national license condition (Ref 00486.02).
# Blood glucose was measured using an Accu-Check® Performa (Roche Diagnostics, Meylan, France) and plasma insulin was determined using Insulin ELISA kits (Mercodia, Uppsala, Sweden). For determination of liver triglycerides, liver samples (100 mg) were homogenized and incubated in NonidetP-40 (5%) and supernatants containing triglycerides were collected. Triglycerides concentration was quantified in the supernatant fraction using a colorimetric assay (ab65336, Abcam, Paris, France) by measuring OD at 570 nm. The ratio NAD/NADH was determined using a quantification kit (MAK037; SigmaAldrich, St Quentin, France) on extracts prepared from 20 mg pancreas tissue. Samples were homogenized in the extraction buffer and clarified by centrifugation. Supernatant was deproteinized by filtration through a 10-kDa cutoff spin filter (Millipore SAS, Molsheim, France). The assay was then performed according to the manufacturer's instructions.
# As expected, mice fed HFD rapidly gained more weight than mice fed control diet and developed fasting hyperglycemia and marked glucose intolerance (FIG. 1A-1F).
structure (smiles),measurement,setting,value
"Cc1ccc(O)c(O)c1 [4-MC, 4-methylcatechol]",adiposity index (retroperitoneal fat pads to body weight),"both diet groups (CHD, HFD), 6 weeks, vs saline",significant reduction
same,liver triglycerides content,"both diet groups, vs saline",significant reduction
same,cumulative glycemia,"both diets, IPGTT, vs saline",reduced
same,glucose tolerance,"both diets, IPGTT, vs saline",improved glucose tolerance
same,ΔG,"both diets, IPGTT, vs saline",reduced
same,fasting glycemia,"both diets, vs saline",reduced
same,insulin secretion,"both diets, vs saline",increased insulin secretion
same,liver weight,mice fed HFD or control diet,significant reduction
same,pancreas weight,mice fed HFD or control diet,increased pancreas weight
same,body growth,"mice fed chow diet or HFD, chronic treatment, vs saline",strong reduction
same,BMI,"mice fed chow diet or HFD, vs saline",strong reduction
